TGI data for eight compounds are collected here from PubChem BioAssay (NCI).

Common to all, as to test: DTP human tumour cell line panel, 48 h
Assay [1] deals with UO-31 renal.
The subject of assay [2] is PC-3 prostate.
Assay [3] has as its system SF-268 CNS.
Assay [4] has as its system IGROV1 ovarian.
Assay [5] has as its system K-562 leukemia.
Assay [6] deals with MDA-MB-435.
Assay [7] relates to M14 melanoma.
Assay [8] relates to BT-549 breast.
In assay [9] the test system is HL-60(TB) leukemia.
Assay [10] concerns NCI-H460 lung.
Assay [11] relates to HT29 colon.
The test system of assay [12] is RXF 393 renal.
For assay [13], the system named is DU-145 prostate.
In assay [14] the test system is SK-MEL-28 melanoma.
Assay [15] deals with SK-MEL-2 melanoma.
The test system of assay [16] is HCC-2998 colon.
Assay [17] deals with COLO 205 colon.
Assay [18] concerns SNB-19 CNS.
Assay [19] deals with A498 renal.

SMILES strings stand for the structures.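 Step 1: Grow cells in 96-well plates. Step 2: Expose to compound for 48 hours at 5 concentrations. Step 3: Interpolate endpoints linearly; if unreached, use highest concentration. TGI: total growth inhibition.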

What is called TGI is the concentration at which net growth stops. Lower therefore signals more potent growth arrest. On to `Cc1cc(NS(=O)(=O)c2ccc(NC(=O)c3ccc4[nH]c5ccccc5c(=O)c4c3)cc2)no1`, for which the TGI in assay [1], in [2], in assay [3], in assay [4], in [5] and in assay [6] was more than 100 µM each time. The TGI in assay [7] was more than 100 µM; in assay [8], more than 100 µM; in assay [9] it was more than 100 µM; in assay [10], more than 100 µM; in assay [11] it was more than 100 µM; in [12], 90.7 µM. Also, the TGI in [13], in assay [14], in assay [15], in assay [16], in assay [17] and in assay [18] was more than 100 µM each time.

Take `COC(=O)C1=C(C(=O)OC)C(Cc2ccccc2)(OO)OC1=O` (stereo not drawn): the TGI in [1] is 26.9 µM; in assay [2], more than 100 µM; in [4] it was 24.5 µM; in assay [5] it was 63.7 µM; in assay [6] it was more than 100 µM; in assay [7] it was more than 100 µM. The concentration for total growth inhibition (TGI) in [8] is 26.3 µM; in assay [9] it was 3.66 µM; in assay [10], more than 100 µM; in assay [11] it was 24.2 µM; in assay [12], 32.8 µM; in assay [13], more than 100 µM. Besides, the TGI in [14] is more than 100 µM; in [15], 96.2 µM; in assay [16], more than 100 µM; in assay [17], more than 100 µM; in assay [18], 58.9 µM.

Consider `O=C1N(c2ccccc2)C2(c3ccccc3)CC3CCCC13S2` (stereo not drawn), for which the TGI is more than 100 µM in assay [1]; 90.3 µM in assay [2]; more than 100 µM in [3]; more than 100 µM in assay [4]; more than 100 µM in [5]; more than 100 µM in [19]. For the same compound, the total growth inhibition concentration (TGI) was more than 100 µM in [6]; more than 100 µM in assay [7]; more than 100 µM in assay [8]; 61.3 µM in assay [9]; more than 100 µM in [11]; more than 100 µM in [12]. The TGI in assay [13] was more than 100 µM; in assay [14], more than 100 µM; in assay [15] it was 80.9 µM; in assay [17] it was more than 100 µM; in [18], more than 100 µM.

Take `COc1cc2c(c(O)c1OC)C(O)C1CCC(=O)N1C2c1cccc2ccccc12` (stereo not drawn): the TGI in assay [1], in assay [2], in [3], in assay [4], in assay [5] and in [19] was more than 100 µM each time. The TGI in [6], in assay [7], in [8], in assay [9], in assay [10] and in assay [11] was more than 100 µM throughout. Also, the TGI in assay [12], in assay [13], in assay [14], in assay [15], in [17] and in assay [18] was more than 100 µM each time.

Take `Cc1ncc([N+](=O)[O-])n1CCN(C)C(=O)CCCn1ccnc1[N+](=O)[O-]`: the TGI in [1], in assay [2], in assay [3], in assay [4], in assay [5] and in [19] was more than 100 µM each time. The TGI in assay [6], in assay [7], in assay [8], in assay [9], in assay [10] and in [11] was more than 100 µM throughout. Besides, the TGI in [12], in [13], in assay [14], in assay [15] and in assay [17] was more than 100 µM in each case.

For the compound `O=Cc1c2ccccc2n2ccc3c4ccccc4[nH]c3c12`, the TGI in [1], in [2], in assay [3], in assay [4], in assay [5] and in [6] was more than 10 µM throughout. Further, the total growth inhibition concentration (TGI) in assay [7], in assay [8], in [9], in assay [10], in assay [11] and in assay [12] was more than 10 µM each time. For the same compound, the concentration for total growth inhibition (TGI) in [13], in assay [15], in assay [16], in assay [17] and in assay [18] was more than 10 µM each time.

As to `COCO[C@@H]1C[C@H]2C(=O)N(COC)c3ccccc3C(=O)N2C1`, the TGI in [1], in [2], in assay [3], in assay [4], in [19] and in assay [6] was more than 100 µM each time. The TGI in assay [7], in assay [8], in [9], in [11], in [12] and in [13] was more than 100 µM in each case. Also, the TGI in assay [14], in assay [15], in assay [17] and in assay [18] was more than 100 µM throughout.

On to `C/C(=C\c1ccccc1)C(=O)NCc1ccc(C(=O)NCCC(C)C)cc1`, for which the TGI in assay [1], in assay [2], in [3], in assay [4], in assay [5] and in assay [19] was more than 100 µM each time. For the same compound, the TGI is more than 100 µM in assay [6]; more than 100 µM in [7]; more than 100 µM in assay [8]; more than 100 µM in assay [10]; more than 100 µM in [11]; 63.4 µM in assay [12]. In addition, the TGI in [13], in assay [14], in assay [15], in [16], in assay [17] and in assay [18] was more than 100 µM each time.
